Laboratory results: ChEMBL document CHEMBL2331088, “An α-carbonic anhydrase from the thermophilic bacterium Sulphurihydrogenibium azorense is the fastest enzyme known for the CO2 hydration reaction” (Bioorg Med Chem, 2013)

Assay: Inhibition of Sulfurihydrogenibium yellowstonense YO3AOP1 carbonic anhydrase preincubated for 15 mins by CO2 hydration stopped-flow assay
In the case of `CC(=O)Nc1nnc(S(N)(=O)=O)s1` [ACETAZOLAMIDE], the Ki is reported as 0.004 µM.
Work on `Br` [BROMIDE] yielded a Ki of 49000 µM.
`N=C=S` [ISOTHIOCYANATE] showed a Ki of 710 µM.
`S=C(S)S` [CARBONOTRITHIOIC ACID] showed a Ki of 60 µM.
`N=C=[Se]` [ISOSELENOCYANATE] showed a Ki of 70 µM.
With `F` [FLUORIDE ION] the Ki was 417000 µM.
`CCN(CC)C(=S)S` [DITIOCARB] gave a Ki of 4 µM.
For `I` [IODIDE], the Ki was 860 µM.
Work on `NS(=O)(=O)O` [SULFAMATE] yielded a Ki of 42 µM.
Molecule `O=S(O)O` [SULFUROUS ACID] has a Ki of 21100 µM.
`O=S(=O)(O)O` [SULFURIC ACID] showed a Ki of 820 µM.
`S` [HYDROGEN SULFIDE] showed a Ki of 580 µM.
Molecule `O=C(O)O` [BICARBONATE] has a Ki of 33200 µM.
Work on `Cl` [HYDROCHLORIC ACID] yielded a Ki of 8300 µM.

Assay: Inhibition of Sulfurihydrogenibium azorense carbonic anhydrase preincubated for 15 mins by CO2 hydration stopped-flow assay
In the case of `CC(=O)Nc1nnc(S(N)(=O)=O)s1` [ACETAZOLAMIDE], the Ki is reported as 0.0009 µM.
For `Br` [BROMIDE], the Ki was 940 µM.
Work on `N=C=S` [ISOTHIOCYANATE] yielded a Ki of 580 µM.
Work on `S=C(S)S` [CARBONOTRITHIOIC ACID] yielded a Ki of 39 µM.
Work on `N=C=[Se]` [ISOSELENOCYANATE] yielded a Ki of 490 µM.
With `F` [FLUORIDE ION] the Ki was 980 µM.
Work on `CCN(CC)C(=S)S` [DITIOCARB] yielded a Ki of 3.1 µM.
Work on `I` [IODIDE] yielded a Ki of 870 µM.
In the case of `NS(=O)(=O)O` [SULFAMATE], the Ki is reported as 4.8 µM.
`O=S(O)O` [SULFUROUS ACID] gave a Ki of 950 µM.
For `O=S(=O)(O)O` [SULFURIC ACID], the Ki was 10000 µM.
In the case of `S` [HYDROGEN SULFIDE], the Ki is reported as 380 µM.
In the case of `O=C(O)O` [BICARBONATE], the Ki is reported as 15700 µM.
For `Cl` [HYDROCHLORIC ACID], the Ki was 850 µM.

Assay: Inhibition of Helicobacter pylori alpha-carbonic anhydrase preincubated for 15 mins by CO2 hydration stopped-flow assay
`Br` [BROMIDE] showed a Ki of 2410 µM.
In the case of `N=C=S` [ISOTHIOCYANATE], the Ki is reported as 4100 µM.
`S=C(S)S` [CARBONOTRITHIOIC ACID] gave a Ki of 380 µM.
`N=C=[Se]` [ISOSELENOCYANATE] gave a Ki of 730 µM.
With `F` [FLUORIDE ION] the Ki was 4080 µM.
With `CCN(CC)C(=S)S` [DITIOCARB] the Ki was 5 µM.
`I` [IODIDE] gave a Ki of 6050 µM.
`NS(=O)(=O)O` [SULFAMATE] showed a Ki of 80 µM.
With `O=S(O)O` [SULFUROUS ACID] the Ki was 990 µM.
Molecule `O=S(=O)(O)O` [SULFURIC ACID] has a Ki of 820 µM.
Molecule `Cl` [HYDROCHLORIC ACID] has a Ki of 2700 µM.
